Laboratory results as given in patent publication US20050158371A1, “Novel external agent” (Sumitomo Pharmaceuticals Co., Ltd., priority 2002, published 2005).

Test: Serum concentration of leflunomide after transdermal or oral administration to adjuvant arthritis rats, LC-MS/MS (Experimental Example 5B)
Format: in vivo
Conditions: rat, leflunomide in serum, single oral administration 20 mg/kg
Protocol: The dosage form for external application of leflunomide as shown in Example was administered once to adjuvant arthritis rats prepared in the same manner as in Experimental Example 1B and the concentration of leflunomide in serum was measured using LC-MS/MS. In addition, the concentration in serum on simultaneous oral administration of leflunomide once (20 mg/kg) was measured and compared.

Compound: Cc1oncc1C(=O)Nc1ccc(C(F)(F)F)cc1 [leflunomide, N-(4′-trifluoromethylphenyl)-5-methylisoxazole-4-carboxamide]
- AUC(0-t) (read-out: AUC, area under the drug concentration-time curve [AUC(0−T)]): 600 ng·h/mL
- Cmax (read-out: Cmax, maximum drug concentration): 502 ng/mL
- Tmax (read-out: tmax, times to reach maximum drug concentration): 30 min
